Data on seven compounds can be found in patent US12139477B2, “Compounds, salts thereof and methods for treatment of diseases” (ACADIA PHARMACEUTICALS INC., priority 2017, dated 2024).

The target of one series is 5HT2A (Homo sapiens, UniProt P28223). Kind of series: Receptor Selection and Amplification (R-SAT) functional assay. The settings on record: NIH3T3 cells; Ki from IC50 by Cheng and Prussoff; read-out: 5-HT2a (pKi) (R-SAT) (converted). Set-up: expressed in transfected cells; host or cells: NIH3T3 cells, pSI mammalian expression vector. It counts as cell-based. The text has this: Receptor Selection and Amplification (R-SAT) Assays. […] The IC50 determined in the RSAT assay was converted into a Ki value using the method of Cheng and Prussoff, Biochem Pharmacol., 1973 Dec. 1; 22(23):3099-108. pKi is the negative of the log(Ki).
5HT2A, sequence (P28223 whole entry): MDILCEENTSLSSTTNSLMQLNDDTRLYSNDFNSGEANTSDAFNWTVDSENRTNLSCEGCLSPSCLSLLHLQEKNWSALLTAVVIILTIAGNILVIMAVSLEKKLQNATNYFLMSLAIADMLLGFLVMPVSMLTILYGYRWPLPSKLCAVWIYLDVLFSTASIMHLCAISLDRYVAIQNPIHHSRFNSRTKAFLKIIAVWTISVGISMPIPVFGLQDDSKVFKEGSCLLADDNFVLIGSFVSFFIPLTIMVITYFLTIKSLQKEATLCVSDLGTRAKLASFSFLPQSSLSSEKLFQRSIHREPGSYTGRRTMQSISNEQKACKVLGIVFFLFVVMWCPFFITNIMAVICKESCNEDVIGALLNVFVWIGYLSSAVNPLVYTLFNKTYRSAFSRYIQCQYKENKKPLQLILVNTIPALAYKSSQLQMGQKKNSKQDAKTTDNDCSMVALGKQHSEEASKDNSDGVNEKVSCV

The target of a further series is T1, hERG channel (Homo sapiens, UniProt Q12809).
T1 construct: host or cells: CHO cells, stably transfected
T1 sequence (Q12809 whole entry): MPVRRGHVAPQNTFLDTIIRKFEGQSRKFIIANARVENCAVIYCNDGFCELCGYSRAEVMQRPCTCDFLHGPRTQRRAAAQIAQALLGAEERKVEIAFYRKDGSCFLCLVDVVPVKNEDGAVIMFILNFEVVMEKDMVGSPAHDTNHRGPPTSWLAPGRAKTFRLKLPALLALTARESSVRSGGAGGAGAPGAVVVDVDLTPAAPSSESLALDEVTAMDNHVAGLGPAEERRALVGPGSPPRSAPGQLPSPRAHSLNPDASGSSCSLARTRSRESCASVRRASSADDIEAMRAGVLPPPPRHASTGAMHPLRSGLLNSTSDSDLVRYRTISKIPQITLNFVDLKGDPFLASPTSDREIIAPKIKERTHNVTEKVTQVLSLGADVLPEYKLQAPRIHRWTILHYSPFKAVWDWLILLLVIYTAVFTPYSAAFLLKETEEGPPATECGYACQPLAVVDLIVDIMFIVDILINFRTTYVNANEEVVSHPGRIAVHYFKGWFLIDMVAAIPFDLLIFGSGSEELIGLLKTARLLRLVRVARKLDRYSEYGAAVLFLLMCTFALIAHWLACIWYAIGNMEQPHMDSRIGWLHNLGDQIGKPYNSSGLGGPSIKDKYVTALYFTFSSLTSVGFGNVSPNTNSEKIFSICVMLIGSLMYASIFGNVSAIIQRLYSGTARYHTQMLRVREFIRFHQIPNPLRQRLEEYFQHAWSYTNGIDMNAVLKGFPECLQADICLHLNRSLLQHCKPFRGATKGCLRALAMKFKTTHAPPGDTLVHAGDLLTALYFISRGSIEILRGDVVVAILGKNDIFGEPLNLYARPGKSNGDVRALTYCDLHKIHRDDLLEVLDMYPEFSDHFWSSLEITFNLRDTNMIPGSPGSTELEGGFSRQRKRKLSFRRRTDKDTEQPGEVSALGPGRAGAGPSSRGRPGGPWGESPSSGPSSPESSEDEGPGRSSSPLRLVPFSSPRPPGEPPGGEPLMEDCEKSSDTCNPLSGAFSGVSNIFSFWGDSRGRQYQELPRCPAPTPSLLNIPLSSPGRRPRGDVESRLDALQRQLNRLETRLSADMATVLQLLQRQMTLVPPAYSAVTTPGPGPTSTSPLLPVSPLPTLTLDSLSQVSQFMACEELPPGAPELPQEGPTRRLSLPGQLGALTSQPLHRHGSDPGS
The series can be described thus: hERG assay, whole cell recordings in CHO cells (AVIVA). As to conditions: CHO cells stably expressing hERG, pH 7.4. It counts as cell-based. As to the method: The most common mechanism for these adverse events is the inhibition of one or more cardiac potassium channels, in particular hERG. This current is important for cardiac myocyte repolarization and is a common target for drugs that prolong the QT interval. Test articles in this study were therefore characterized to determine their ability to inhibit the hERG channel. Ion channel activity was measured at AVIVA Biosciences Corporation (San Diego, CA), using a stably transfected Chinese Hamster Ovary (CHO) cell line expressing the hERG mRNA.
Cells: AVIVA's CHO cell line, which stably expresses hERG channels, was used for the study. Cells were cultured in DMEM/F12 containing 10% FBS, 1% penicillin/streptomycin and 500 μg/ml G418. Before testing, cells were harvested using Accumax (Innovative Cell Technologies).
Solutions: For electrophysiological recordings, the following solutions were used: External Solution: 2 mM CaCl2); 2 mM MgCl2; 4 mM KCl; 150 mM NaCl; 10 mM Glucose; 10 mM HEPES; 305-315 mOsm; pH 7.4 (adjusted with 5M NaOH); Internal Solution: 140 mM KCl; 10 mM MgCl2; 6 mM EGTA; 5 mM HEPES-Na; 5 mM ATP-Mg; 295-305 mOsm; pH 7.25 (adjusted with 1M KOH).
Electrophysiology: Whole cell recordings were performed using PX 7000A (Axon Instruments) with AVIVA's SealChip™ technology. Cells were voltage clamped at a holding potential of −80 mV. The hERG current was then activated by a depolarizing step to −50 mV for 300 ms. This first step at −50 mV was used as a baseline for measuring peak amplitude of the tail current. Next, a voltage step to +20 mV was applied for 5 s to activate the channels. Finally, a step back to −50 mV for 5 s removed activation and the deactivating tail current was recorded.
Test Article Handling and Dilutions: All test articles were prepared from 10 mM DMSO stock solutions provided by Sponsor. Solutions were mixed by sonication for 20 min, followed by vigorous vortexing. Prior to testing, compounds were diluted to test concentrations in glass vials using External Solution. Dilutions were prepared no longer than 20 min prior to use.
Electrophysiology Procedures: After achieving whole cell configuration, cells were monitored for 90 s to assess stability and then washed with External Solution for 66 s. The voltage protocol previously described was then applied to the cells every 12 s throughout the procedure. Only stable cells with recording parameters above threshold (see Quality Control section) were allowed to enter the drug addition procedure. External solution containing 0.1% DMSO (vehicle) was applied to the cells to establish a baseline. […] Test article solutions were added to cells in 4 separate additions. Cells were kept in test solution until effect of the test article reached steady state, to a maximum of 12 min. Next, 1 μM cisapride (positive control) was added. Finally, washout with External Solution was performed until the recovery current reached steady state.
Data Analysis: Data analysis was performed using DataXpress (Axon Instruments), Clampfit (Axon Instruments) and Origin (OriginLab Corporation) software.
A general note: hERG is a cardiac potassium channel; its block is linked to QT prolongation.

Broadly, the inhibition is the share of the control response that was lost under treatment. A higher inhibition goes with a strong effect. Turning to `CC(C)Oc1ccc(CNC(=O)N(Cc2ccc(F)cc2F)C2CCN(C)CC2)c(F)c1` [Example 144, 1-[(2,4-difluorophenyl)methyl]-3-{[2-fluoro-4-(propan-2-yloxy)phenyl]methyl}-1-(1-methylpiperidin-4-yl)urea; Trifluoroacetic Acid], the Ki at 5HT2A was 1 nM. This compound also yielded an inhibition at 1 µM against hERG channel of 37%.
Taken in the same sequence, the figures for `CC(=O)Oc1cc(F)ccc1CN(C(=O)NCc1ccc(OCC(C)C)cc1)C1CCN(C)CC1` [Example 92, 5-fluoro-2-{[1-(1-methylpiperidin-4-yl)({[4-(2-methylpropoxy)-phenyl]methyl}carbamoyl)amino]methyl}phenyl acetate; Trifluoroacetic Acid] were 0.316 nM and 45%.
The matching figures for `CC(C)COc1ccc(CNC(=O)N(Cc2ccc(F)cc2O)C2CCN(C)CC2)cc1` [Example 13, 1-[(4-fluoro-2-hydroxyphenyl)methyl]-1-(1-methylpiperidin-4-yl)-3-{[4-(2-methylpropoxy)phenyl]methyl}urea]: 0.0794 nM and 34%.
The matching figures for `COc1ccc(CNC(=O)N(Cc2ccc(F)cc2F)C2CCN(C)CC2)cc1` [Example 125, 3-[(2,4-difluorophenyl)methyl]-1-[(4-methoxyphenyl)methyl]-3-(1-methylpiperidin-4-yl)urea]: 3.98 nM and 17%.
With `CC(C)Oc1ccc(CNC(=O)N(Cc2ccc(F)cc2F)C2CCN(C)CC2)cc1F` [Example 143, 1-[(2,4-difluorophenyl)methyl]-3-{[3-fluoro-4-(propan-2-yloxy)phenyl]methyl}-1-(1-methylpiperidin-4-yl)urea; Trifluoroacetic Acid], on 5HT2A, the Ki is 0.501 nM. The same compound had an inhibition at 1 µM on hERG channel of 41%.
For `CN1CCC(N(Cc2ccc(F)cc2F)C(=O)NCc2ccc3occc3c2)CC1` [Example 20, 3-[(1-benzofuran-5-yl)methyl]-1-[(2,4-difluorophenyl)methyl]-1-(1-methylpiperidin-4-yl)urea], the Ki on 5HT2A was 1.58 nM. This compound also showed an inhibition at 1 µM against hERG channel of 30%.
In the case of `Cc1ccc(CN(C(=O)NCc2ccc(OC(C)C)cc2)C2CCN(C)CC2)c(F)c1` [Example 115, 1-[(2-fluoro-4-methylphenyl)methyl]-1-(1-methylpiperidin-4-yl)-3-{[4-(propan-2-yloxy)phenyl]methyl}urea; Trifluoroacetic Acid], the Ki at 5HT2A was 0.316 nM. The inhibition at 1 µM against hERG channel was found to be 49%.
